# Measured values published in ChEMBL document CHEMBL1201862, “PubChem BioAssay data set” (2004).
# Calls of active or inactive are those of the source.
# Assays:
# [1] = viability of uninfected HEp-2 cells – cell-based, HTS, cytotoxicity control for RSV inhibitor project, dose response (AID 2410); assay type: functional; conditions: human respiratory syncytial virus
# [2] = viability loss in HepG2 liver cells – cell-based, ATP luminescence, cherry-pick, set 6, cytotoxicity control, dose response (AID 1053125); assay type: functional
# cells [3] = conditions: A549
# cells [4] = conditions: HEK293;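 further: cells exposed to compound for 48 hours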
# [5] = A Cell-Based Confirmatory Screen for Compounds that Inhibit VEEV, TC-83 (7).; assay type: functional
# [6] = biological target: T1, Calpain-2 catalytic subunit (Sus scrofa, UniProt P43367); assay: m-calpain protease blockers, concentration series – biochemical, fluorogenic peptide substrate, dose response (AID 1420); assay type: functional
# T1 sequence (P43367 whole entry): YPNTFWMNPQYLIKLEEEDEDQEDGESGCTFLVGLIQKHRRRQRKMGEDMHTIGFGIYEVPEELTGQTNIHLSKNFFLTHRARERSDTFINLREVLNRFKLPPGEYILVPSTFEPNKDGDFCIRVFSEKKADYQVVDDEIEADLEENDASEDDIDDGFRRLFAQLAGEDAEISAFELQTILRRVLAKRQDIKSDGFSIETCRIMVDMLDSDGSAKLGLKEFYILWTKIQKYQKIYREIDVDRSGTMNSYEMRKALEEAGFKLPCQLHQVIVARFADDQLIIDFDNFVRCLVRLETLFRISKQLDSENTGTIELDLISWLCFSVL
# Kallikrein-7 = Kallikrein-7 (Homo sapiens, UniProt P49862); assay: Fluorescence Intensity-based biochemical primary high throughput dose response assay to identify activators of kallikrein-7 (K7) zymogen.
# Kallikrein-7, sequence (P49862 whole entry): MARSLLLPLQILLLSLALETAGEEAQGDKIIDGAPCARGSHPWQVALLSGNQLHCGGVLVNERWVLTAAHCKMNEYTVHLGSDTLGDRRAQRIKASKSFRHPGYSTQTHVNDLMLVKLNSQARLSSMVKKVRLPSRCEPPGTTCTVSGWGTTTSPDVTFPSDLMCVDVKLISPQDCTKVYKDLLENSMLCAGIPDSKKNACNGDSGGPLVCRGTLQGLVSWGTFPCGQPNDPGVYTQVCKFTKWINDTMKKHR
# [7] = optical artefact potency, substrate without enzyme – biochemical, fluorescence intensity, triplicate, artefact control for kallikrein-7 zymogen activator project, dose response (AID 720493)
# [8] = anti-trypanosomal activity in BESM host cells – imaging, CA-I/72 strain, bovine embryo skeletal muscle, dry powder, dose response (AID 651885); assay type: functional, cell-based
# Albumin = Albumin (Bos taurus, UniProt P02769); assay: Counterscreen for inhibitors of T-cell receptor (TCR)-CD3 interaction: Fluorescence-based biochemical high throughput dose response assay to identify inhibitors of T-cell receptor (TCR)-CD3 interaction using a TAMRA-labeled BSA probe.; assay type: functional
# Albumin, sequence (P02769 whole entry): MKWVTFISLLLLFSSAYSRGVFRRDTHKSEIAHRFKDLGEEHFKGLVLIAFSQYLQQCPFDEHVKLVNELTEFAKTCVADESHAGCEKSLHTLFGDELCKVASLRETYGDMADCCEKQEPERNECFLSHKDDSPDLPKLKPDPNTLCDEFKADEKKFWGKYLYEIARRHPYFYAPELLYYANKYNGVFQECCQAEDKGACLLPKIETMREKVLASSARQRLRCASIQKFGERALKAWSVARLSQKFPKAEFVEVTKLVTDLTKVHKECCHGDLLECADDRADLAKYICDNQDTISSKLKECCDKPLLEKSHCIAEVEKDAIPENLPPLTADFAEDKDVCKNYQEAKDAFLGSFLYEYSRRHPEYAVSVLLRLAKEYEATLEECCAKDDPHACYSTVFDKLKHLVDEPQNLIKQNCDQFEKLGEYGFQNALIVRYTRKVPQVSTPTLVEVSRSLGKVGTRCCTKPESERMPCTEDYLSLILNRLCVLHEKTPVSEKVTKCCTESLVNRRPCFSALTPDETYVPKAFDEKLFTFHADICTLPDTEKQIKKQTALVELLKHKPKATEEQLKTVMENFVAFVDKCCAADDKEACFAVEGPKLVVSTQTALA
# [9] = inhibition of mouse IRAP aminopeptidase activity – biochemical, Leu-AMC fluorescence, cherry-picked samples, set 2, selectivity assay for ERAP1 modulator project, dose response (AID 743340)
# HeLa = assay: viability loss in HeLa cells – cell-based, ATP luminescence, cherry-pick samples, cytotoxicity control, dose response (AID 687004); assay type: functional; conditions: Homo sapiens
# HEK293 = assay: viability loss in HEK293T cells – cell-based, ATP luminescence, cherry-pick samples, cytotoxicity control, dose response (AID 687005); assay type: functional; conditions: Homo sapiens;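 further: cells exposed to compound for 48 hours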
# [10] = HEK293 Cytotoxicity Assay Measured in Cell-Based System Using Plate Reader - 7071-01_Inhibitor_Dose_CherryPick_Activity_Set2.; assay type: functional
# [11] = CTGF mRNA reduction in DLD1 cells – cell-based, DLD1 colon cancer, RT-qPCR, cherry-pick, dose response (AID 1053122); assay type: functional; conditions: Cancer cell lines
structure (smiles),measurement,setting,value
CCN1CCc2c(sc(NC(=O)Nc3ccc(Cl)c(Cl)c3)c2C(N)=O)C1,CC50,[1],10.4 µM (active)
same,AC50,[2],15.4 µM (active)
same,AC50,cells [3],15.3 µM (active)
same,AC50,cells [4],15.2 µM (active)
O=c1c2cc(F)c(F)cc2nc(CN2CCNCC2)n1-c1ccccc1,IC50,[5],22.4 µM (active)
COc1ccc2c(c1)C(=O)CC(O)(C(F)F)O2 (stereo not given),IC50,[6],8.34 µM (not active)
same,EC50,Kallikrein-7,16.5 µM (inactive)
same,EC50,[7],> 7.73 µM (active)
C[C@@H]1CN([C@@H](C)CO)C(=O)c2cccc(NC(=O)c3ccncc3)c2O[C@H]1CN(C)Cc1ccc(C(=O)O)cc1,IC50,[8],14.1 µM (inactive)
CN=C(S)NNC(=O)c1cccn(Cc2ccc(Cl)c(Cl)c2)c1=O,IC50,Albumin,> 94 µM (inactive)
C[C@H]1CN([C@@H](C)CO)C(=O)c2cccc(NC(=O)Nc3ccc(C(F)(F)F)cc3)c2O[C@@H]1CN(C)CC1CC1,AC50,[9],16 µM (active)
C[C@@H](NC(=O)C[C@@H]1CC[C@@H]2[C@H](COC[C@H](O)CN2Cc2cc(F)ccc2F)O1)c1ccccc1,AC50,HeLa,> 52 µM (inactive)
same,AC50,HEK293,5.05 µM (active)
same,AC50,[10],5.05 µM (active)
O=C(c1cccc(F)c1)N1CCCCN2[C@H](CO)[C@H](c3ccc(C#CC4(O)CCCC4)cc3)[C@@H]2C1,AC50,[11],2.86 µM (active)
